# Source: patent US20220387410A1, “4-[5-[(rac)-1-[5-(3-Chlorophenyl)-3-isoxazolyl]ethoxy]-4-methyl-4H-1,2,4-triazol-3-yl]pyridine for use in prevention and/or treatment of surmenage in a mammal” (priority 2019, published 2022)
# Where two headings read alike, the source gives them in different places. Marks after values point to notes of the source that are not given here.
# Experiments:
# [1] = test system: Mice; conditions: p<0.001, cited from earlier work
# [2] = test system: mouse FST behavior; experiment: Forced Swim Test; assay type: in vivo; conditions: for Immobility duration: mouse FST, vehicle 112.5 ± 14.10
# Text: TT001 has been used in the Forced Swim Test. _For protocol see Can A., et al., The Mouse Forced Swim Test, J Vis Exp. 2012; (59): 3638.
# [3] = test system: cat or dog undergoing elective castration or ovariohysterectomy; experiment: Recovery after neutering, TT001 plus meloxicam vs meloxicam (Example 2); assay type: in vivo
# Procedure: To study recovery after neutering, cage demeanour scoring using a simple descriptive scale was used. The dogs were premedicated with acepromazine and pethidine, i.m. in a first group, and meloxicam orally or in a second group TT001 was also added as pre-medication.
# (§1) Twenty to forty minutes after pre-medication the sedation was scored with the SDS (simple descriptive scale). The dogs were induced with propofol. Anesthesia was maintained with isoflurane in oxygen. Intraoperative analgesia was provided with morphine, prior to surgery. At the end of the surgery, group 1 continued to receive meloxicam, while group 2 continued to receive TT001 as well as meloxicam. No additional treatment was administered.
# (§2) At the end of the procedure and recovery SDS was scored.
# [4] = test system: humans; conditions: cited from earlier work
# [5] = test system: cat or dog undergoing elective castration or ovariohysterectomy; experiment: Recovery after neutering, TT001 added as pre-medication (Example 1); assay type: in vivo
# Procedure: To study recovery after neutering, cage demeanour scoring using a simple descriptive scale was used. The dogs were premedicated with acepromazine and pethidine, intermuscular (i.m.) in a first group, or in a second group TT001 was also added as pre-medication.
# as §1, with “pre-medication,” for “pre-medication”, “received” for “continued to receive”, “received no” for “continued to receive TT001 as well as meloxicam. No”, “treatment.” for “treatment was administered.”
# as §2
# [6] = test system: rats; experiment: Learned helplessness studies; assay type: in vivo, rat
# Text: Nomura S. et al., Studies on animal model of depression: review and perspective, Review, Yakubutsu Seishin Kodo, 1989 December; 9(4):349-58.
# TT001 was used in learned helplessness studies in rats.
# [7] = Dissolution of TT001 in I.V. formulation vehicle; assay type: physicochemical; conditions: 0.1-10 mg/mL in 40% w/v HPβCD in water for injection; a couple of hours for complete dissolution
# Procedure: Formulation Method for the Preparation of TT001 for I.V. Dosing, 0.1 to 10 mg/ml
# The formulation method is applicable at concentrations in formulation between 0.1 and 10 mg/mL corresponding to 0.262 and 26.2 μmol/mL
# Preparation of 40% w/v HPβCD solution in water for injection
# Preparation of TT001 I.V. formulations between 0.1 and 10 mg/ml
# [8] = test system: TLESR; conditions: healthy volunteers, cited from earlier work
# [9] = test system: dogs; experiment: Toxicological studies in dogs, maximum 52 weeks, gavage; assay type: in vivo, dog; conditions: dogs, 2, 6, 7 or 31 mg/kg by gavage, after 52 weeks
# Procedure: Toxicological studies for TT001 in dogs, were performed on dogs using 2, 6, 7 or 31 mg/kg, for a maximum of 52 weeks. The dogs were fed with gavage throughout this period and blood samples were taken throughout the period.
# Balcome at al Contemporary Topics 2004 by the American Association for Laboratory Animal Science. Vol 43. […] In addition, the animals are separated and live in small areas which further increase the stress.
# [10] = test system: dogs; conditions: cited from earlier work
# [11] = cat or dog undergoing elective castration or ovariohysterectomy
# [12] = group 2 (TT001 + meloxicam) vs group 1 (meloxicam)
# [13] = group 2 (TT001 pre-medication) vs group 1
smiles,measurement,setting,value
CN1CC(=O)NC1=NC(=O)Nc1cccc(Cl)c1 [Fenobam],stress-induced hyperthermia (SIH),[1]; 10 mg/kg,significantly reversed
same,stress-induced hyperthermia (SIH),[1]; 30 mg/kg,significantly reversed
"C[C@@H](Oc1nnc(-c2ccncc2)n1C)c1cc(-c2cccc(Cl)c2)on1 [TT001, 4-[5-[(1R)-1-[5-(3-Chlorophenyl)-3-isoxazolyl]ethoxy]-4-methyl-4H-1,2,4-triazol-3-yl]pyridine]",Immobility duration,[2]; TT001 3 μmol/kg,51.15 ± 7.788 ^a sec
same,Immobility duration,[2]; TT001 10 μmol/kg,47.45 ± 11.45 ^a sec
same,Immobility duration,[2]; TT001 30 μmol/kg,44.83 ± 4.693 ^a sec
same,signs of gastric ulcer or changes in mucosa,[2]; test animals of the mouse Forced Swim Test,none of the test animals had signs of gastric ulcer
same,effect on duration for the recovery period,[3]; [11],positive effect
same,Time to extubation,[3]; [12],shorter
same,Time to lifting the head after surgery,[3]; [12],shorter
same,Time to raising from the bedding after surgery,[3]; [12],shorter
same,Time to start of spontaneous/voluntary urination after surgery,[3]; [12],shorter
same,Time to starting to eat after surgery,[3]; [12],shorter
same,cortisol values,[3]; [12],Lower
same,nausea,[3]; [12],Less
same,time in intensive care/PACU unit,[3]; [12],Less
same,effect on anxiety,[4]; humans,no effect
same,"clinical effect in all indications (chronic pain, anxiety, GERD)","[4]; man, oral, clinical development discontinued",lack of effect
same,effect on duration of the recovery period,[5]; [11],positive effect
same,cortisol values,[5]; group 2 (TT001) vs commonly used anesthesia protocol,Lower
same,Time to extubation,"[5]; group 2 (TT001 added as pre-medication) vs group 1 (acepromazine, pethidine; meloxicam after surgery)",shorter
same,Time to lifting the head after surgery,[5]; [13],shorter
same,Time to raising from the bed after surgery,[5]; [13],shorter
same,Time to start of spontaneous/voluntary urination after surgery,[5]; [13],shorter
same,Time to starting to eat after surgery,[5]; [13],shorter
same,nausea,[5]; [13],Less
same,"Escape Failures, Day 4 Mean","[6]; 1.8 μmol/kg, vehicle 11.1",2.2
same,"Escape Failures, Day 3 Mean","[6]; 1.8 μmol/kg, vehicle 23.2",6.9
same,"Escape Failures, Total Day 3 + Day 4","[6]; 1.8 μmol/kg, vehicle 34.25, p < 0.05 vs vehicle",9.1 ^a
same,stomach ulcers,[6]; learned helplessness studies,did not appear
same,dissolution,[7],moderate
same,effect on TLESR,"[8]; 13 mg (about 0.19 mg/kg), 2 to 3 hours after food-intake",some effect
same,side effects,[8]; high doses of 13 mg,Some serious side effects
same,effect on reflux,[8]; prior to food intake and 1-2 hours after food intake,no significant effect
same,signs of gastric ulcer,[9],none of the animals showed signs of gastric ulcer
COc1cccc(C2(O)CCCCC2CN(C)C)c1 (centres unmarked) [Tramadol],pain killer effect,[10],not present
